Columns and labels:
[1] = system: ECHORC (Watergrass (Calif.)); assay: Postemergence weed control under flooded paddy conditions; assay type: in vivo, Echinochloa oryzoides; details: rate 0.2500 kg/ha, postemergence weeds, 3-4 weeks after treatment
Procedure, shortened: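 With weeds 3 to 5 cm tall and rice at the 1.5 to 2.5 leaf stage, containers were flooded and water held 1.5 to 3 cm above soil. Compounds in 50/50 v/v aqueous/acetone went into the flood water at about 0.0313 to 0.500 kg/ha a.i. Effects were visually rated 0–9 against controls after three to four weeks in the greenhouse.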

ABUTH (Velvetleaf) = assay: Preemergence herbicidal evaluation; assay type: in vivo, Abutilon theophrasti; details: rated 4-5 weeks after treatment
Procedure, shortened: (§1)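 Rating at 4–5 wk post-spray on a 0–9 visual scale vs control. Application: aqueous acetone, ~0.0156–0.500 kg/ha, to soil surface after seeding, preemergence.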

ZEAMX (Corn, Field) = assay: Postemergence herbicidal evaluation; assay type: in vivo, Zea mays
Procedure, shortened: (§2)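 Young plants, roughly two weeks from seeding, receive the active ingredient as a sprayed dispersion (acetone/water 50/50, 0.5% TWEEN 20) at 40 psi. Doses span about 0.0156 to 0.500 kg/ha. A visual score from 0 to 9 compares treated with control plants four to five weeks on.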

GALAP (Galium) = assay: Preemergence herbicidal evaluation; assay type: in vivo, Galium aparine; details: rated 4-5 weeks after treatment
Procedure, shortened: as §1

SETVI (Foxtail, Green) = assay: Preemergence herbicidal evaluation; assay type: in vivo, Setaria viridis; details: rated 4-5 weeks after treatment
Procedure, shortened: as §1

AMBEL (Ragweed, Common) [2] = assay: Preemergence herbicidal evaluation; assay type: in vivo, Ambrosia artemisifolia; details: rated 4-5 weeks after treatment
Procedure, shortened: as §1

CYPSE (Flatsedge) = assay: Preemergence weed control under flooded paddy conditions; assay type: in vivo, Cyperus serotinus; details: 0.2500 kg/ha, rated 3-4 weeks after treatment
Procedure, shortened: (§3)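 Using flooded silt loam (water 1.5 to 3 cm deep), seeds sown in the top 0.5 cm were exposed preemergence to compound pipetted into the flood at about 0.0313 to 0.500 kg/ha. Effects were scored 0-9 by eye three to four weeks later.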

[3] = system: GLXMAW (Soybean, Williams); assay: Preemergence herbicidal evaluation; assay type: in vivo, Glycine max, (L.) Merr. cv Williams; details: rated 4-5 weeks after treatment
Procedure, shortened: as §1

[4] = system: SAGPY (Arrowhead (Pygmaea)); assay: Preemergence weed control under flooded paddy conditions; assay type: in vivo, Sagittaria pygmaea; details: 0.2500 kg/ha, rated 3-4 weeks after treatment
Procedure, shortened: as §3

AMBEL (Ragweed, Common) [5] = assay: Postemergence herbicidal evaluation; assay type: in vivo, Ambrosia artemisifolia
Procedure, shortened: as §2

ECHCG (Barnyardgrass) = assay: Preemergence herbicidal evaluation; assay type: in vivo, Echinochloa crus-galli; details: rated 4-5 weeks after treatment
Procedure, shortened: as §1

[6] = system: GLXMAW (Soybean, Williams); assay: Postemergence herbicidal evaluation; assay type: in vivo, Glycine max, (L.) Merr. cv Williams
Procedure, shortened: as §2

[7] = system: IPOHE (Morningglory, Ivyleaf); assay: Postemergence herbicidal evaluation; assay type: in vivo, Ipomoea hederacea
Procedure, shortened: as §2

CASOB (Sicklepod) = assay: Preemergence herbicidal evaluation; assay type: in vivo, Cassia obtusifolia; details: rated 4-5 weeks after treatment
Procedure, shortened: as §1

CCOC(=O)CN1C(=O)C(CC(=O)O)SC1=Nc1cc(-n2c(=O)cc(C(F)(F)F)n(C)c2=O)c(Cl)cc1Cl (stereo not drawn) [Compound 33, 2-{{2,4-Dichloro-5-[3,6-dihydro-3-methyl-2,6-dioxo-4-(trifluoromethyl)-1(2H)-pyrimidinyl]phenyl}-imino}-4-oxo-3,5-thiazolidinediacetic acid, 3-ethyl ester]
8.0: Postemergence herbicidal rating ZEAMX (ZEAMX (Corn, Field); Rate 0.0315 kg/ha)
7.5: Postemergence herbicidal rating ZEAMX (ZEAMX (Corn, Field); Rate 0.0158 kg/ha)
0.0: Herbicidal rating ECHORC [1] | Preemergence herbicidal rating ABUTH (ABUTH (Velvetleaf); rate 0.0156 kg/ha) | Preemergence herbicidal rating ABUTH (ABUTH (Velvetleaf); rate 0.0313 kg/ha) | Preemergence herbicidal rating GALAP (GALAP (Galium); rate 0.0156 kg/ha) | Preemergence herbicidal rating GALAP (GALAP (Galium); rate 0.0313 kg/ha) | Preemergence herbicidal rating GALAP (GALAP (Galium); rate 0.0625 kg/ha) | Preemergence herbicidal rating SETVI (SETVI (Foxtail, Green); rate 0.0156 kg/ha) | Preemergence herbicidal rating SETVI (SETVI (Foxtail, Green); rate 0.0313 kg/ha) | Preemergence herbicidal rating AMBEL (AMBEL (Ragweed, Common) [2]; rate 0.0156 kg/ha) | Preemergence herbicidal rating AMBEL (AMBEL (Ragweed, Common) [2]; rate 0.0313 kg/ha) | Herbicidal rating CYPSE (CYPSE (Flatsedge)) | Preemergence herbicidal rating GLXMAW ([3]; rate 0.0156 kg/ha) | Preemergence herbicidal rating GLXMAW ([3]; rate 0.0313 kg/ha) | Preemergence herbicidal rating GLXMAW ([3]; rate 0.0625 kg/ha) | Preemergence herbicidal rating GLXMAW ([3]; rate 0.1250 kg/ha) | Preemergence herbicidal rating GLXMAW ([3]; rate 0.2500 kg/ha) | Herbicidal rating SAGPY [4] | Preemergence herbicidal rating ECHCG (ECHCG (Barnyardgrass); rate 0.0156 kg/ha) | Preemergence herbicidal rating ECHCG (ECHCG (Barnyardgrass); rate 0.0313 kg/ha) | Preemergence herbicidal rating ECHCG (ECHCG (Barnyardgrass); rate 0.0625 kg/ha) | Preemergence herbicidal rating ECHCG (ECHCG (Barnyardgrass); rate 0.1250 kg/ha) | Preemergence herbicidal rating ECHCG (ECHCG (Barnyardgrass); rate 0.2500 kg/ha) | Preemergence herbicidal rating CASOB (CASOB (Sicklepod); rate 0.0156 kg/ha) | Preemergence herbicidal rating CASOB (CASOB (Sicklepod); rate 0.0313 kg/ha) | Preemergence herbicidal rating CASOB (CASOB (Sicklepod); rate 0.0625 kg/ha)
9.0: Preemergence herbicidal rating ABUTH (ABUTH (Velvetleaf); rate 0.0625 kg/ha) | Preemergence herbicidal rating ABUTH (ABUTH (Velvetleaf); rate 0.1250 kg/ha) | Preemergence herbicidal rating ABUTH (ABUTH (Velvetleaf); rate 0.2500 kg/ha) | Preemergence herbicidal rating SETVI (SETVI (Foxtail, Green); rate 0.2500 kg/ha) | Preemergence herbicidal rating AMBEL (AMBEL (Ragweed, Common) [2]; rate 0.0625 kg/ha) | Preemergence herbicidal rating AMBEL (AMBEL (Ragweed, Common) [2]; rate 0.1250 kg/ha) | Preemergence herbicidal rating AMBEL (AMBEL (Ragweed, Common) [2]; rate 0.2500 kg/ha) | Postemergence herbicidal rating AMBEL (AMBEL (Ragweed, Common) [5]; Rate 0.0158 kg/ha) | Postemergence herbicidal rating AMBEL (AMBEL (Ragweed, Common) [5]; Rate 0.0315 kg/ha) | Postemergence herbicidal rating AMBEL (AMBEL (Ragweed, Common) [5]; Rate 0.0630 kg/ha) | Postemergence herbicidal rating IPOHE ([7]; Rate 0.0158 kg/ha) | Postemergence herbicidal rating IPOHE ([7]; Rate 0.0315 kg/ha) | Postemergence herbicidal rating IPOHE ([7]; Rate 0.0630 kg/ha) | Preemergence herbicidal rating CASOB (CASOB (Sicklepod); rate 0.2500 kg/ha)
7.0: Postemergence herbicidal rating GLXMAW ([6]; Rate 0.0158 kg/ha)
3.0: Preemergence herbicidal rating SETVI (SETVI (Foxtail, Green); rate 0.0625 kg/ha) | Preemergence herbicidal rating SETVI (SETVI (Foxtail, Green); rate 0.1250 kg/ha)
4.0: Preemergence herbicidal rating CASOB (CASOB (Sicklepod); rate 0.1250 kg/ha)
8.5: Postemergence herbicidal rating ZEAMX (ZEAMX (Corn, Field); Rate 0.0630 kg/ha) | Postemergence herbicidal rating GLXMAW ([6]; Rate 0.0315 kg/ha) | Postemergence herbicidal rating GLXMAW ([6]; Rate 0.0630 kg/ha)

— patent US20020137929A1, “1 - (3-heterocyclylphenyl) isothiourea, -isourea, -guanidine and -amidine herbicidal agents” (Intellectual Property Department, BASF Aktiengesellschaft, priority 1998, published 2002)
